Source: patent publication EP4813979A1, “COMPOUND FOR EGFR PROTEIN DEGRADATION AND USE THEREOF” (TYK Medicines, Inc., priority 2023, dated 2025)

Experiments:
[1] = tested on: A431; assay: Cell anti-proliferation experiment (CTG); type: cell-based; details: Homo sapiens, A431 (wild-type EGFR)
Outline: (§1)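 Cells were seeded at 1500–2500/well and dosed after ~24 h with compound in a 1:4 dilution series up to 10,000 nM, in triplicate. Viability was read by CTG luminescence after 72 h, normalized to the 0.1% DMSO control and medium blank, and IC50 was obtained by curve fitting.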

[2] = tested on: A549; assay: Cell anti-proliferation experiment (CTG); type: cell-based; details: Homo sapiens, A549 (wild-type EGFR)
Outline: as §1

[3] = tested on: Baf3-19del- T790M -C797S (Baf3-DTC); assay: Cell anti-proliferation experiment (CTG); type: cell-based
Outline: as §1

[4] = tested on: Baf3-L858R-T790M - C797S (Baf3-LTC); assay: Cell anti-proliferation experiment (CTG); type: cell-based
Outline: as §1

[5] = tested on: H1975; assay: Cell anti-proliferation experiment (CTG); type: cell-based; details: Homo sapiens, H1975 (EGFR T790M/L858R)
Outline: as §1

[6] = tested on: HCC827; assay: Cell anti-proliferation experiment (CTG); type: cell-based; details: Homo sapiens, HCC827 (exon 19 deletion)
Outline: as §1

[7] = tested on: PC-9; assay: Cell anti-proliferation experiment (CTG); type: cell-based; details: Homo sapiens, PC-9 (EGFR exon 19 deletion)
Outline: as §1

[8] = Pharmacokinetic test of CD-1 mice; type: in vivo; set-up: AUC(0-t) / AUC(0-inf): concentration or dose not given beside the values; details: male CD-1 mice, single oral gavage (PO), plasma
Protocol: Plasma was collected from male CD-1 mice after a single gavage administration of the test substance. The plasma was then analyzed to calculate pharmacokinetic parameters.
The solvent is 5% DMSO + 10% Solutol HS-15 + 85% Saline.
Formulation preparation process: Accurately weighed the compound powder, added appropriate volumes of DMSO, Solutol and physiological saline in sequence, and vortexed sonicate at each step to finally form a homogeneous formulation solution.
Experimental animals were housed in the SPF-grade animal facility of Suzhou Xihua New Drug Development Co., Ltd. (License No.: SYXK(Su)2021-0019). Animals were fed normally for at least 3 days after purchase before the experiment, and each mouse was marked with a tail tag. Animals in the oral administration group were fasted overnight the day before administration, and were resumed feeding 4 hours later, with free access to water. Table 4. Sources and Number of Experimental Animals […]
Before administration, checked the state of the administration formulation and ensured its homogeneity by vortexing, stirring or shaking. Calculated the theoretical administration volume for each CD-1 mouse in each group according to the following formula. Theoretical administration volume (mL); = (Dose (mg⋅kg^−1))/(formulation concentration (mg⋅mL^−1)) × animal body weight (kg) [formula]
Table 5 Sample Collection Information
The collected blood was placed in test tubes containing the anticoagulant EDTA-K2 (15 % EDTA-K2 solution), stored on moist ice, and centrifuged within 45 min (1,500 g, 2-8 °C, 10 min). Plasma was then collected. The plasma was stored in pre-chilled centrifuge tubes, flash-frozen on dry ice, and subsequently stored in an ultra-low temperature freezer at -60 °C or lower until shipment.
A quantitative detection method for the analyte was established using Shimadzu liquid chromatography and Triple Quad™ 6500+AB mass spectrometry. The concentration of the parent drug in plasma was analyzed. The analytical results were controlled for variation using quality control samples, with the accuracy of the quality control samples expected to be between 80% and 120%.
The main pharmacokinetic parameters were calculated using a non-compartmental model in Winnonlin Phoenix software. These parameters included the area under the curve (AUC(0-t) and AUC(0-∞)), elimination half-life (T1/2), maximum plasma concentration (Cmax ), and time to reach maximum plasma concentration (Tmax).

[9] = A-431, 72 h, number after the class symbol
[10] = A549, 72 h, number after the class symbol
[11] = 72 h, number after the class symbol
[12] = NCI-H1975, 72 h, number after the class symbol
[13] = HCC827, 72 h, number after the class symbol
[14] = PC-9, 72 h, number after the class symbol

| Compound | IC50 ([1]; A-431, 72 h, class symbol) [nM] | IC50 [1, 9] [nM] | IC50 ([2]; A549, 72 h, class symbol) [nM] | IC50 [2, 10] [nM] | IC50 ([3]; 72 h, class symbol) [nM] | IC50 [3, 11] [nM] | IC50 ([4]; 72 h, class symbol) [nM] | IC50 [4, 11] [nM] | IC50 ([5]; NCI-H1975, 72 h, class symbol) [nM] | IC50 [5, 12] [nM] | IC50 ([6]; HCC827, 72 h, class symbol) [nM] | IC50 [6, 13] [nM] | IC50 ([7]; PC-9, 72 h, class symbol) [nM] | IC50 [7, 14] [nM] | also measured |
| --- | --- | --- | --- | --- | --- | --- | --- | --- | --- | --- | --- | --- | --- | --- | --- |
| COc1cc(N2CCC(CN3CCN(c4ccc5c(c4)C(=O)N(C4CCC(=O)NC4=O)C5=O)CC3)CC2)c(-c2cnn(C)c2)cc1Nc1ncc(Br)c(Nc2ccc(C3CC3)cc2P(C)(C)=O)n1 (stereo not drawn) [DZL-1, reference compound] | > 1000 | > 5000 | > 1000 | > 5000 | 10 to 100 | 14.5 | 10 to 100 | 13.6 | 10 to 100 | 54.8 | 100 to 1000 | 105 | 100 to 1000 | 205 |  |
| CCc1cc(Nc2ncc(Cl)c(Nc3ccccc3P(C)(C)=O)n2)c(OC)cc1N1CC2(CCN(C(=O)CN3CCC(c4cc5c(cc4F)c(N4CCC(=O)NC4=O)nn5C)C(F)(F)C3)CC2)C1 (stereo not drawn) [TA-023] | > 1000 | 1180 | > 1000 | 1260 | 100 to 1000 | 202 | < 10 | 8.4 | 10 to 100 | 14.7 | 100 to 1000 | 593 | 100 to 1000 | 461 |  |
| CCc1cc(Nc2ncc(Cl)c(Nc3ccccc3P(C)(C)=O)n2)c(OC)cc1N1CCN(C(=O)CN2CCC(c3cc4c(cc3F)c(N3CCC(=O)NC3=O)nn4C)CC2)CC1 [TC-213] | > 1000 | 1340 | > 1000 | 1770 | < 10 | 8.9 | < 10 | 0.8 | 10 to 100 | 35.9 | 10 to 100 | 53 | 100 to 1000 | 505 |  |
| CCc1cc(Nc2ncc(Cl)c(Nc3ccccc3C(=O)NC)n2)c(OC)cc1N1CCN(C(=O)CN2CCC(c3cc4c(cc3F)c(N3CCC(=O)NC3=O)nn4C)C(F)(F)C2)CC1 (stereo not drawn) [TA-003] |  |  |  |  |  |  |  |  |  |  |  |  |  |  | IC50 ([1]; A-431, 72 hours, class symbol): > 1000 nM; IC50 ([2]; 72 hours, class symbol): > 1000 nM; IC50 ([3]; 72 hours, class symbol): 100 to 1000 nM; IC50 ([4]; 72 hours, class symbol): 100 to 1000 nM; IC50 ([5]; NCI-H1975, 72 hours, class symbol): < 10 nM; IC50 ([6]; 72 hours, class symbol): > 1000 nM; IC50 ([7]; 72 hours, class symbol): > 1000 nM; HL_ [8]: 2.45 h; AUC(0-inf) ([8]; mouse): 20700 ng·h/mL; AUC(0-t) ([8]; mouse): 20600 ng·h/mL; Cmax ([8]; mouse): 3410 ng/mL; MRT last ([8]; mouse): 5.11 h; Tmax ([8]; mouse): 4 h |
| CCc1cc(Nc2ncc(Cl)c(Nc3ccccc3P(C)(C)=O)n2)c(OC)cc1N1CCN(C(=O)CN2CCC(c3cc4c(cc3F)c(N3CCC(=O)NC3=O)nn4C)C(F)(F)C2)CC1 (stereo not drawn) [TC-157] | > 1000 | 1650 | 100 to 1000 | 948 | < 10 | 4.1 | < 10 | 4.1 | 10 to 100 | 24 | 100 to 1000 | 812 | 100 to 1000 | 349 |  |
